Patent US12377069B2, “Compounds, compositions, methods of using, and methods for preparing compounds” (UNIVERSITY OF LOUISVILLE RESEARCH FOUNDATION, INC., priority 2018, dated 2025)

Columns and labels:
colon explants = experiment: Colon explant culture; set-up: species or system mouse; conditions: 50 μM, 24 h
Experimental: Colon explant culture: Colon tissue pieces (0.5-1 cm length) from wild type (C57BL/6) or Nrf2^−/− or AhR^−/− mice were cultured in triplicates for 24 h in complete DMEM-high glucose medium (supplemented with 10% fetal bovine serum, 1× penicillin-streptomycin solution) in a humidified atmosphere in the presence of vehicle (0.01% DMSO), UroA (50 μM) or UAS03 (50 μM). The tissues were processed for protein preparation (tissue lysates with RIPA plus buffer) or total RNA isolation. These tissue lysates or RNA were used to determine the expression of Nrf2, Cldn4 and AhR.

Nrf2^−/− mice = experiment: TNBS-induced colitis in Nrf2^−/− mice; assay type: in vivo, mouse; conditions: 20 mg/kg every 12 h post TNBS
Experimental: FIG. 7: UroA/UAS03 utilize Nrf2 pathways to mitigate colitis. (A-F) Colitis was induced using TNBS in C57BL/6 (WT) and Nrf2^−/− mice (n=4-5/group 7-8 week old age). Mice were treated with Veh or UroA/UAS03 (20 mg/kg bodyweight) every 12 h post TNBS administration ending at 72 h. Representative data from two independent experiments is shown. (A) TNBS-induced colitis experimental design and treatment regimen. (B) Percent body weight loss (No TNBS− Solid black line; Veh+TNBS− Solid red line; UroA+TNBS− Solid blue line; UAS03+TNBS− Solid purple line), (C) representative colon images, (D) colon lengths, (E) gut permeability, (F) serum levels of IL-6 and TNF-α were determined. Statistical analysis was performed (unpaired t-test) using Graphpad Prism software. Error bars, ±SEM ***p<0.001; **p<0.01 *p<0.05.
(§1) 2,4,6-Trinitrobenzenesulfonic acid (TNBS)-induced colitis: Male C57BL/6 or Nrf2^−/− mice (6-8 week old age mice) were anesthetized with ketamine/xylazine (100 mg/12.5 mg/kg IP) mixture and administered with single dose of TNBS (2.5 mg/mice; Sigma Aldrich, USA) in 50% ethanol. After administration of TNBS, mice were held upside down for 30-60 sec to ensure proper distribution of TNBS in the colon. Control group received 50% ethanol without TNBS. Mice with TNBS were randomly divided into three groups, viz. vehicle (0.25% sodium carboxymethylcellulose (CMC)), UroA and UAS03. UroA or UAS03 was resuspended in 0.25% sodium-CMC at desired concentrations. The mice were given orally Veh or UroA or UAS03 in 100 μl at desired concentrations (4 or 20 mg/kg/body weight). The treatment started after 12 hours of TNBS administration and every 12 hours thereafter up to 72 hours. The experiment was terminated post 60 h TNBS, where AhR^−/− mice were involved. In some experiments, we treated only once at post 12 h TNBS administration. TNBS administered and control mice were euthanized for tissue and plasma collection after 80 hours of TNBS/ethanol treatment. Mice were examined for colitis phenotype.

AhR^−/− mice = experiment: TNBS-induced colitis in AhR^−/− mice; assay type: in vivo, mouse; conditions: 20 mg/kg every 12 h; for serum IL-6 in AhR^−/− mice / serum TNF-α in AhR^−/− mice / shortening of colon lengths in AhR^−/− mice: 60 h post TNBS
Experimental: FIG. 8: UroA/UAS03 exert beneficial activities through AhR-dependent pathways. (A-F) Colitis was induced using TNBS in C57BL/6 (WT) and AhR^−/− mice (n=4/group 7-8 week old age). Mice were treated with Veh or UroA/UAS03 (20 mg/kg bodyweight) every 12 h post TNBS administration and mice were euthanized at post 60 h TNBS administration. (A) TNBS-induced colitis experimental design and treatment regimen. (B) Percent body weight loss (No TNBS-Solid black line; Veh+TNBS− Solid red line; UroA+TNBS− Solid blue line; UAS03+TNBS− Solid purple line), (C) representative colon images, (D) colon lengths, (E) gut permeability, (F) serum levels of IL-6 and TNF-α were determined. Statistical analysis was performed (unpaired t-test) using Graphpad Prism software. Error bars, ±SEM ***p<0.001; **p<0.01 *p<0.05. (G) AhR-Nrf2 dependent tight junction protein regulation by UroA/UAS03. UroA/UAS03 (L:ligands) bind to AhR and activate its nuclear translocation to induce expression of Cyp1A1 and Nrf2. […] (H) LPS (50 ng/ml)-induced IL-6 levels were measured in the presence of Vehicle or UroA or UAS03 (0.1, 1, 10, 20, 30 and 50 μM) in bone marrow derived macrophages (BMDM) from wild type (WT), Nrf2^−/− and AhR^−/− mice. The data is representative of two independent experiments with triplicates. Statistical analysis was performed (unpaired t-test) using Graphpad Prism software. Error bars, ±SEM ***p<0.001; **p<0.01 *p<0.05.
as §1

C57BL/6 mice [1] = experiment: In vivo Miles assay (VEGF); conditions: 20 mg/kg oral gavage; VEGF 2.5 ng/mouse
Experimental: Acute intoxication of alcohol can induce microvasculature leakage as well as direct exposure to endothelium leads to disruption of endothelial integrity. […] In addition, increased endothelial permeability enhances the extravasation of immune cells into liver leading to increased inflammation. To examine the effect of UroA/UAS03 on endothelial cell permeability, we utilized in vivo Evans Blue permeability assay. Briefly, C57BL/6 mice (n=4/group) were given LPS (100 μg) i.p. followed by treatment with UAS03 or UroA (20 mg/kg) after 1 h and 18 h. Evans blue (i.v.) was given to mice (24 h post LPS treatment) and 30 min later mice were euthanized and the Evans Blue from lung and liver tissues was extracted using formamide. The levels of Evans Blue was determined by OD at 620 nm. […] To evaluate direct impact of UroA or UAS03 on endothelial barrier function, we used in vivo Miles assay to test blood vessel permeability. We used vascular endothelial growth factor (VEGF) as vasodilator. In this assay, C57BL/6 mice (n=3 per group) were given vehicle or UroA or UAS03 (20 mg/kg; oral gavage). After 3 h, Evans blue (100 μL of 1% solution) was administered i.v. followed by intra-dermal administration of VEGF (2.5 ng/mouse) or PBS (control). […]

C57BL/6 mice [2] = experiment: TNBS-induced colitis; assay type: in vivo, mouse; conditions: for colitis phenotype, therapeutic regimen: 20 mg/kg from 24 h post-TNBS; for TNBS-induced colon shortening and colonic inflammation, pre-treatment / barrier function, pre-treatment: oral 20 mg/kg daily one week before TNBS, none after

Structure (SMILES)	Cldn4 and NQO1 in Nrf2^−/− and AhR^−/− colon explants (colon explants)	expression of Nrf2, NQO1 and Cldn4 in WT colon explants (colon explants)	barrier function (FITC-dextran leakage) in Nrf2^−/− mice (Nrf2^−/− mice)	body weight loss and colon shortening in Nrf2^−/− mice (Nrf2^−/− mice)	serum IL-6 and TNF-α levels in Nrf2^−/− mice (Nrf2^−/− mice)	rapid body weight loss in AhR^−/− mice treated with TNBS (AhR^−/− mice)	serum IL-6 in AhR^−/− mice (AhR^−/− mice)	serum TNF-α in AhR^−/− mice (AhR^−/− mice)	shortening of colon lengths in AhR^−/− mice (AhR^−/− mice)	endothelial barrier leakage induced by VEGF (C57BL/6 mice [1])	colitis phenotype, therapeutic regimen (C57BL/6 mice [2])	TNBS-induced colon shortening and colonic inflammation, pre-treatment (C57BL/6 mice [2])	barrier function, pre-treatment (C57BL/6 mice [2])
Oc1ccc2c(c1)COc1cc(O)ccc1-2 [UAS03, 6H-benzo[c]chromene-3,8-diol]	did not appear to induce	induced the expression	did not enhance barrier function	did not appear to restore body weight loss	partially reduced	some protective role	did not appear to reduce IL-6	slightly reduced	did not appear to protect	protected from endothelial barrier leakage	reversed the colitis phenotype	protected	enhanced barrier function
O=c1oc2cc(O)ccc2c2ccc(O)cc12 [UroA, 3,8-dihydroxy-6H-dibenzo[b,d]pyran-6-one]	did not appear to induce	induced the expression	did not enhance barrier function	did not appear to restore body weight loss	partially reduced		did not appear to reduce IL-6	slightly reduced	did not appear to protect	protected from endothelial barrier leakage	reversed the colitis phenotype	protected	enhanced barrier function
